According to patent US20020155381A1, “Optical data carrier comprising a light-absorbent compound having a plurality of chromophoric centres in the information layer” (priority 2001, published 2002):
Blank lines part the entries; values can stand above or below the molecule they belong to.

How the values were obtained:
Type in all cases: physicochemical
[1] = Solubility in coating solvent
[2] = Spin coating on fused silica support: film quality and film thickness from transmission and reflection spectra; conditions: for kind of film obtained by spin coating: 1-2 parts of solid per 100 in TFP or THF; for film thickness: spin coated from 1 part of solid to 99 parts of TFP, before vacuum
Protocol: A 1/1 mixture (by mass) of substances of the following formulae was dissolved in tetrafluoropropanol (TFP) in a mass ratio of 2 parts of solid to 98 parts of TFP. […] Evaluation of the transmission and reflection spectra indicated a film thickness of 165 nm. [drawing 62]
(§1) Determination of the complex index of refraction and the thickness of the layer of the organic substances by means of transmission and reflection spectra:
(§2) The transmission and reflection spectra of the layer systems film/fused silica or SiN/film/fused silica or SiN/fused silica were determined with perpendicular incidence of a parallel beam of light in a wavelength range of from 200 nm to 1 700 nm. […] The reflected light was detected at an angle of 172° relative to the direction of incidence. Two different thicknesses of the organic film were in each case produced by spin coating. The thickness of the layer was adjusted by means of the solution concentration. The thicknesses were in the range from 50 nm to 500 nm. To evaluate the transmission and reflection spectra, the known Fresnel formulae were employed and the interferences caused by multiple reflection in the layer system were taken into account. A simultaneous least squares fit of the measured transmission and reflection spectra to the calculated spectra of the two layer systems of differing thickness enabled the layer thicknesses and the complex index of refraction of the organic substance to be determined at each wavelength. For this purpose, the index of refraction of the fused silica support has to be known. The index of refraction curve of the fused silica substrate in this spectral range was determined independently on an uncoated substrate.

[3] = Vacuum treatment of the spin-coated film (simulated sputtering conditions), layer thickness afterwards; conditions: vacuum ~10^-6 mbar, 1 hour, room temperature
Protocol: This film was subjected to a vacuum (pressure ˜10^−6 mbar) for 1 hour at room temperature to simulate the conditions when applying metallic or dielectric layers by sputtering during the production of optical data carriers.
as §1, §2

[4] = SiN vapour deposition on the organic film, apparent thickness of the organic film
Protocol: A layer of SiN was subsequently applied by vapour deposition on top of the layer which had been pretreated in the above-described manner. Vapour deposition was carried out by electric heating of Si3N4 in a molybdenum boat under reduced pressure. The pressure during the vapour deposition process was ˜10^−4 mbar, and the deposition rate was ˜4-5 Angström per second. To determine the complex index of refraction of the deposited SiN layer, control experiments were carried out on plain fused silica plates. The thickness of the SiN layer was determined by means of a profiler (Tencor Alpha Step 500 Surface Profiler). In turn, evaluation of the transmission and reflection spectra of the layer system taking into account the complex index of refraction and the thickness of the SiN layer enabled the apparent thickness of the organic film to be determined. It was 94 nm. […]
The transmission and reflection spectra of the layer systems film/fused silica or SiN/film/fused silica or SiN/fused silica were determined with perpendicular incidence of a parallel beam of light in a wavelength range of from 200 nm to 1 700 nm. […] The reflected light was detected at an angle of 172° relative to the direction of incidence. […] The index of refraction curve of the fused silica substrate in this spectral range was determined independently on an uncoated substrate.

Compound: CCN(CC)c1ccc(/C=C/c2cc[n+](Cc3ccccc3C[n+]3ccc(/C=C/c4ccc(N(CC)CC)cc4)cc3)cc2)cc1 [Example 12]
- solubility ([1]; in TFP (tetrafluoropropanol)): 2%

Compound: CCCOC(=O)/C(C#N)=C/c1ccc(C)o1 [Example IV, reference compound]
- kind of film obtained by spin coating [2]: crystalline film

Compound: N#C/C(=C\c1cccn1CCCn1cccc1/C=C(\C#N)c1ccccc1)c1ccccc1 [Example 9]
- solubility ([1]; in diacetone alcohol): 2%

Compound: CN(CCOC(=O)CCC(=O)OCCN(C)c1ccc(C(C#N)=C(C#N)C#N)cc1)c1ccc(C(C#N)=C(C#N)C#N)cc1 [Example 5]
- solubility ([1]; in TFP (tetrafluoropropanol)): 1%

Compound: COc1cc2c(cc1OC)C(C)(C)C/C2=C(/C#N)C(=O)OCCOC(=O)/C(C#N)=C1\CC(C)(C)c2cc(OC)c(OC)cc21 [Example II]
- kind of film obtained by spin coating [2]: transparent film
- film thickness [2]: 85 nm
- retention of the substance after vacuum treatment [3]: fully retained
- total thickness d of the layer after vacuum treatment [3]: 85 nm

Continued, values first:

- solubility ([1]; in TFP (tetrafluoropropanol)): 2%
Compound: CC1(C)CC(=O)C(=Cc2ccc(N3CCN(c4ccc(C=C5C(=O)CC(C)(C)CC5=O)o4)CC3)o2)C(=O)C1 [Example 10]

- kind of film obtained by spin coating [2]: transparent film
- film thickness [2]: 153 nm
- retention of the substance after vacuum treatment [3]: virtually fully retained
- total thickness d of the layer after vacuum treatment [3]: 143 nm
- change of the layer by the SiN vapour deposition process ([4]; SiN deposited at ~10^-4 mbar on vacuum-pretreated layer): the layer has not been changed
- apparent thickness of the organic film after SiN vapour deposition ([4]; SiN deposited at ~10^-4 mbar, ~4-5 Angström per second, on vacuum-pretreated layer): 160 nm
Compound: Cc1ccc(/C=C(\C#N)C(=O)OCC(C)(COC(=O)/C(C#N)=C/c2ccc(C)o2)COC(=O)/C(C#N)=C/c2ccc(C)o2)o1 [Example V]

- solubility ([1]; in TFP (tetrafluoropropanol)): 2%
Compound: CN(CCC#N)c1ccc(/C=C/C2=[N+](CCCC[N+]3=C(/C=C/c4ccc(N(C)CCC#N)cc4)C(C)(C)c4ccccc43)c3ccccc3C2(C)C)cc1 [Example 13]
